{"source": "ChEMBL document CHEMBL4610081", "about": "“Anti-inflammatory Metabolites from Chaetomium nigricolor” (J Nat Prod, 2020)", "system": "RAW264.7", "assay": "Antiinflammatory activity against mouse RAW264.7 cells assessed as inhibition of LPS-induced NO production preincubated for 3 hrs followed by LPS-stimulation and measured after 24 hrs by Griess reagent based assay", "format": "functional, cell-based", "note": "The source made the active and inactive calls. The rule behind the calls is not given here.", "data": [{"smiles": "O=c1ccoc(Cc2ccccc2)c1", "values": [{"measurement": "Activity", "result": "inactive"}]}]}
